The target of the series is CYP3A4 (Homo sapiens, UniProt P08684, S18F). Put plainly: Stopped-flow spectroscopy of ligand binding to CYP3A4 nanodiscs. The note with it: faster in POPC nanodiscs.

The record followed here is PMC5275761 (Biochemistry, 2016).

As for `C[C@]12CC[C@H]3[C@@H](CCC4=CC(=O)CC[C@@]43C)[C@@H]1CC[C@@H]2O` [TST, testosterone], the “rate constant for binding in POPC nanodiscs relative to 25% POPC/75% DMPC nanodiscs” value is ~ 4 fold.
